In patent US20050084914A1, “Assays with primary cells” (priority 2003, published 2005):

What was measured:
PPARγ = biological target: T1, PPARγ (Homo sapiens, UniProt P37231); assay: PPARγ activity assay based on PEPCK expression in primary pre-adipocytes on coded carriers; settings: four donor samples (visceral and subcutaneous pre-adipocytes), shared fluid volume, four days
T1 sequence (P37231 1-505): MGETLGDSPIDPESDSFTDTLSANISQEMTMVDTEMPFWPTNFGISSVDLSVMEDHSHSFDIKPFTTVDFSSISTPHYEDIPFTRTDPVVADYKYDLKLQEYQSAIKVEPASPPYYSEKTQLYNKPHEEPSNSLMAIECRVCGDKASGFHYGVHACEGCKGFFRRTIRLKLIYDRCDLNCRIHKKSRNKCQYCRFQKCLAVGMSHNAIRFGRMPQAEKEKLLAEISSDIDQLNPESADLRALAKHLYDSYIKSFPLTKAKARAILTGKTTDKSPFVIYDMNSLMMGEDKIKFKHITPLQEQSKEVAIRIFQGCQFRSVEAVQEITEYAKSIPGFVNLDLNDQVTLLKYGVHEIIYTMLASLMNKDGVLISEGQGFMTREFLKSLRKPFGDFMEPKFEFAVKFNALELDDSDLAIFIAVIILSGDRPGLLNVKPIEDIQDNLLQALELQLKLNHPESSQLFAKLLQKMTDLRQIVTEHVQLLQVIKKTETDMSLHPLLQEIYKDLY
Text: This differentiation may be visualized readily and scored by staining lipid droplets that accumulate in the cytoplasm of the adipocytes during and/or after their differentiation. Furthermore, this adipocyte differentiation and/or activation of PPARγ may be followed by measuring the expression levels (RNA and/or protein) of PPARγ target genes (direct or indirect targets), such as PEPCK (phosphoenolpyruvate carboxykinsae) and/or FABP4 (fatty acid binding protein 4), among others.
Staining was via indirect immunofluorescence. Cells were counterstained with a nuclear dye (Hoechst) for data normalization, here and in other assays. […] Each sample of primary cells corresponds to pre-adipocytes isolated from visceral tissue (samples starting with the letter “V”) or isolated from subcutaneous tissue (samples starting with the letters “SC”) and were supplied by Cambrex. […] Each sample was connected to a distinct class of coded carriers (having a distinct code) to permit identification of the sample after combining the different classes of carrier and samples in a shared volume. […] Lipid accumulation and PEPCK expression were then measured with the samples still disposed in the same microplate wells. […]

[1] = tested on: primary human renal proximal tubule epithelial (HRPTE) cells; assay: proliferative response of primary HRPTE cells (S-phase index); type: cell-based; settings: HRPTE cells in 96-well microplate wells or on coded carriers; various concentrations
Procedure: This example describes how multiplexed analysis using coded carriers may be used to assay the effects of camptothecin on the proliferative response of primary human renal proximal tubule epithelial (HRPTE) cells, in accordance with aspects of the present teachings; see FIG. 6.
Specifically, HRPTE cells are grown directly in wells of a standard 96-well microplate, to three different cell densities (indicated as the stated number of cells), or on coded carriers that optionally may be placed in wells of the microplate. An “S-phase index” (e.g., the fraction of cells in the S-phase of the cell cycle) is used as a measure of cell proliferation. […] This reduction may be particularly significant in assays on primary cells, because primary cells typically are difficult to obtain and maintain.

HRPTE cells = assay: cytotoxicity response of HRPTE cells (death index, live/dead assay); type: cell-based, human; settings: HRPTE cells in 96-well microplate wells or on coded carriers; various concentrations
Procedure: This example describes how multiplexed analysis using coded carriers may be used to study the cytotoxicity response of HRPTE cells to staurosporine, in accordance with aspects of the present teachings; see FIG. 7.
Specifically, HRPTE cells are grown directly attached to wells of a standard 96-well microplate, or on coded carriers that optionally may be placed in wells of the microplate. A “death index” (e.g., the fraction of observed cells that are dead) may be used as a measure of cytotoxicity. The death index may be computed using any suitable mechanism, such as a fluorescence-based “live/dead assay.” In an exemplary version of the assay, live cells are labeled green using a membrane-permeant calcein AM, which is cleaved by esterases in live cells to yield cytoplasmic green fluorescence, and dead cells are labeled red using a membrane-impermeant ethidium homodimer-1, which passes through the compromised membranes of dead cells to label nucleic acids with red fluorescence. […] This reduction may be particularly significant in assays on primary cells, because primary cells typically are difficult to obtain and maintain.

Structure (SMILES): COc1ccc2c(c1)c(CC(=O)O)c(C)n2C(=O)c1ccc(Cl)cc1 [Indomethacin, indomethacin]
- induction of PEPCK expression as a measure of PPARγ activity (PPARγ): relatively strong induction

Structure (SMILES): CC[C@@]1(O)C(=O)OCc2c1cc1n(c2=O)Cc2cc3ccccc3nc2-1 [camptothecin]
- S-phase index as a measure of cell proliferation [1]: S-phase index generally decreases with increasing camptothecin concentration

Structure (SMILES): CN[C@@H]1C[C@H]2O[C@@](C)([C@@H]1OC)n1c3ccccc3c3c4c(c5c6ccccc6n2c5c31)C(=O)NC4 [staurosporine]
- death index (fraction of dead cells) (HRPTE cells): generally increases with increasing staurosporine concentration
